From patent US11839689B2, “Formulations of enzalutamide” (Astellas Pharma Inc., priority 2012, dated 2023)

What was measured:
Format in all cases: physicochemical
[1] = Microcentrifuge dissolution test in Model Fasted Duodenal Solution; conditions: for Enzalutamide Concentration, 0 min / Enzalutamide Concentration, 4 min / Enzalutamide Concentration, 10 min / Enzalutamide Concentration, 20 min / Enzalutamide Concentration, 40 min / Enzalutamide Concentration, 90 min / Enzalutamide Concentration, 1200 min: MFDS pH 6.5; for Enzalutamide Concentration, 0 min / Enzalutamide Concentration, 4 min / Enzalutamide Concentration, 10 min / Enzalutamide Concentration, 20 min / Enzalutamide Concentration, 40 min / Enzalutamide Concentration, 90 min / Enzalutamide Concentration, 1200 min / AUC90 (area under the curve at 90 minutes) / Cmax, 90 (maximum drug concentration through 90 minutes): dose 200 μg/ml; for AUC90 (area under the curve at 90 minutes) / Cmax, 90 (maximum drug concentration through 90 minutes): Table 4.2, MFDS
Excerpt: The in vitro dissolution test to evaluate enhanced drug concentration in aqueous solution can be conducted by (1) adding with agitation a sufficient quantity of control composition, that is, the crystalline enzalutamide alone, to the in vitro test medium, typically MFD or PBS solution, to determine the maximum concentration of the enzalutamide achieved under the conditions of the test; (2) adding with agitation a sufficient quantity of test composition (e.g., the enzalutamide and polymer) in an equivalent test medium, such that if all the enzalutamide dissolved, the theoretical concentration of enzalutamide would exceed the observed maximum concentration of enzalutamide by a factor of about 20; and (3) comparing the measured MDC and/or aqueous concentration versus time AUC90 of the test composition in the test medium with the maximum concentration, and/or the aqueous concentration versus time AUC90 of the control composition. In conducting such a dissolution test, the amount of test composition or control composition used is an amount such that if all of the enzalutamide dissolved, the test enzalutamide concentration would be at least about 20-fold that of the control enzalutamide concentration.
The concentration of dissolved enzalutamide is typically measured as a function of time by sampling the test medium and plotting enzalutamide concentration in the test medium vs. time so that the MDC can be ascertained. The MDC is taken to be the maximum value of dissolved enzalutamide measured over the duration of the test. The enzalutamide concentration versus time AUC90 is calculated by integrating the concentration versus time curve over any 90-minute time period between the time of introduction of the composition into the aqueous use environment (time equals zero) and 270 minutes following introduction to the use environment (time equals 270 minutes). Typically, when the composition reaches its MDC rapidly, in less than about 30 minutes, the time interval used to calculate AUC90 is from time equals zero to time equals 90 minutes. However, if the AUC90 over any 90-minute time period described above of a composition meets the criteria of compositions described herein, then the composition is included in compositions of this disclosure. The time period 270 min is chosen because of its physiological relevance. Drug absorption in mammals generally occurs in the small intestine, and the small intestinal transit time in humans is approximately 4.5 hr, or 270 min.
To avoid large enzalutamide particulates which would give an erroneous determination, the test solution is either filtered or centrifuged. “Dissolved enzalutamide” is typically taken as that material that either passes a 0.45 micron syringe filter or, alternatively, the material that remains in the supernatant following centrifugation. Filtration can be conducted using a 13 mm, 0.45 micron polyvinylidine difluoride syringe filter, such as the filter sold by Scientific Resources under the trademark TITAN′. Centrifugation is typically carried out in a polypropylene microcentrifuge tube by centrifuging at 13,000 G for 60 seconds. Other similar filtration or centrifugation methods can be employed and useful results obtained. For example, using other types of microfilters may yield values somewhat higher or lower (+/−10-40%) than that obtained with the filter specified above but will still allow identification of dispersions. It is recognized that this definition of “dissolved enzalutamide” encompasses not only monomeric solvated enzalutamide molecules but also a wide range of species such as polymer/enzalutamide assemblies that have submicron dimensions such as enzalutamide aggregates, aggregates of mixtures of polymer and enzalutamide, micelles, polymeric micelles, colloidal particles, polymer/enzalutamide complexes, and other such enzalutamide-containing species that are present in the filtrate or supernatant in the specified dissolution test. […]

[2] = Glass transition temperature by modulated DSC as a function of relative humidity
Experimental: Below Tg, an amorphous material is said to be in a “glassy” state in which molecular mobility is severely restricted. […] Glass transition temperatures Tg were determined for amorphous enzalutamide, and for spray-dried dispersions (SDDs) of enzalutamide with HPMCAS-M or PVP-VA64, at <5% and 75% relative humidity (RH). Tgs were determined by modulated differential scanning calorimetry (mDSC), utilizing the following protocol. Samples (about 5 mg) were equilibrated at the desired RH overnight in an environmental chamber at ambient temperature. The samples were then loaded into pans and sealed inside the environmental chamber. The samples were analyzed on a Q1000 mDSC (TA Instruments, New Castle, Delaware). Samples were typically scanned over the temperature range of −40° C. to 180° C., at a scan rate of 2.5° C./min, and a modulation rate of ±1.5° C./min. The data sampling interval was 0.20 sec/point. The Tg was calculated based on half height.

[3] = SEM particle morphology before and after 1 day at 50° C./75% RH; conditions: after 1 day exposure to 50° C./75% RH
Experimental: Scanning electron micrographs (SEMs) were obtained for samples before and after 1 day exposure to a 50° C./75% RH environment. After exposure of these samples to this challenging storage environment, no crystals were seen, indicative of the ability of these samples to maintain the amorphous character of enzalutamide. […] Thus these three embodiments would require controlled storage conditions to maintain their efficacy.

[4] = Microcentrifuge dissolution test after suspension in 0.5% methylcellulose for 2 hours
Experimental: Drugs and drug formulations are sometimes dosed as aqueous suspensions, particularly for pediatric patients. The ability of various enzalutamide SDDs to retain their ability to maintain drug supersaturation in vitro was assessed by using the microcentrifuge dissolution test to measure drug dissolution after suspension in 0.5% methylcellulose in water for 2 hours. Methylcellulose is a standard viscosifying suspending agent which is used to maintain drug particles in suspension in oral suspension dosage forms. The table below presents in vitro dissolution performance before and after suspension in 0.5% methylcellulose.

[5] = Membrane-permeation (MP) dissolution test
Experimental: The membrane permeability test described in the Examples below is carried out as follows. A drug-permeable membrane is placed between feed and permeate reservoirs. A sufficient quantity of test composition is added to a feed test medium and placed in the feed reservoir, while a water immiscible organic solution, such as a 60/40 mixture of decanol/decane, is placed in the permeate reservoir. Samples are removed from the permeate reservoir and analyzed for the concentration of drug as a function of time. […] Further details of this membrane permeation test are disclosed in U.S. Pat. No. 7,611,630 B2.
The MP-dissolution test, whose details are described above, measures a capability of low solubility drug formulations which is not measured in the microcentrifuge dissolution test utilized in Examples 4 and 7. This test mimics an aspect of the in vivo situation in the GI tract. In the in vivo situation, it is generally accepted that free drug in solution (i.e. individual drug molecules dissolved in the GI medium without association with formulation components) is the species which is absorbed across the gastrointestinal wall into the bloodstream. As free drug is absorbed, the formulation must be capable of supplying more free drug for absorption. The membrane permeation test measures the amount of drug which crosses a polymeric membrane (as a model of the GI wall) over time, and thus reflects the ability of the formulation to resupply free drug in solution to be further passively transported across the polymeric membrane. In Table 8.1 below, Maximum Flux is the maximum observed rate of permeation across the polymeric membrane, based on the slope of the absorption curve over any period within the 240 minute duration of the experiment, normalized for membrane area. Total drug recovery is the % of the initial drug dose which has crossed the membrane when the test ended at 240 minutes.
The membrane permeation test was carried out for 60% A enzalutamide SDDs with HPMCAS-M, HPMC E3 Prem, HPMCP-55, and Eudragit-L100, as described in Example 8.

[6] = 0 hr, before suspension in aqueous 0.5% methylcellulose
[7] = 2 hr, after suspension for 2 hr in aqueous 0.5% methylcellulose
[8] = Table 8.1, within 240 minutes, normalized for membrane area

| Enzalutamide Concentration, 0 min ([1]; 0 min) [µg/mL] | Enzalutamide Concentration, 4 min ([1]; 4 min) [µg/mL] | Enzalutamide Concentration, 10 min ([1]; 10 min) [µg/mL] | Enzalutamide Concentration, 20 min ([1]; 20 min) [µg/mL] | Enzalutamide Concentration, 40 min ([1]; 40 min) [µg/mL] | Enzalutamide Concentration, 90 min ([1]; 90 min) [µg/mL] | Enzalutamide Concentration, 1200 min ([1]; 1200 min) [µg/mL] | AUC90 (area under the curve at 90 minutes) [1] | Cmax, 90 (maximum drug concentration through 90 minutes) [1] [µg/mL] | Maximum Flux [5, 8] [μg/cm^2 × min] | Structure (SMILES) | further results |
| --- | --- | --- | --- | --- | --- | --- | --- | --- | --- | --- | --- |
| 0.0 | 61 | 100 | 100 | 110 | 120 | 30 | 9,500 min*μg/mL | 120 | 1.3 | CNC(=O)c1ccc(N2C(=S)N(c3ccc(C#N)c(C(F)(F)F)c3)C(=O)C2(C)C)cc1F [Amorphous (spray-dried) enzalutamide - BREC-0035-09B(V)] | Tg ([2]; 75% RH): 64.0 °C; Tg ([2]; <5% RH): 88.5 °C; fusion of particles to larger particles by SEM after storage challenge [3]: fusion of particles to form larger particles; AUC90 [4, 6]: 8,900 min · mcg/ml; Cmax 90 [4, 6]: 110 µg/mL; AUC90 [4, 7]: 8,800 min · mcg/ml; Cmax 90 [4, 7]: 100 µg/mL |
| 0.0 | 1 | 3 | 5 | 6 | 7 | 9 | 500 µg·min/mL | 7 | 0.4 | CNC(=O)c1ccc(N2C(=S)N(c3ccc(C#N)c(C(F)(F)F)c3)C(=O)C2(C)C)cc1F [Crystalline enzalutamide (Control 1)] | In vitro dissolution, Average, 0 min ([1]; Table 9.1, 0 min): 0.32 µg/mL; In vitro dissolution, Average, 4 min ([1]; Table 9.1, 4 min): 5.23 µg/mL; In vitro dissolution, Average, 10 min ([1]; Table 9.1, 10 min): 8.04 µg/mL; In vitro dissolution, Average, 20 min ([1]; Table 9.1, 20 min): 7.69 µg/mL; In vitro dissolution, Average, 40 min ([1]; Table 9.1, 40 min): 8.65 µg/mL; In vitro dissolution, Average, 90 min ([1]; Table 9.1, 90 min): 9.14 µg/mL; In vitro dissolution, Average, 1200 min ([1]; Table 9.1, 1200 min): 12.12 µg/mL; AUC90 min ([1]; Table 9.2): 740 µg·min/mL; Cmax, 90 min ([1]; Table 9.2): 10 µg/mL; Maximum Flux ([5]; Table 9.3): 0.4 μg/cm^2-min |
